Data on nine compounds can be found in patent US20030158188A1, “Fused azabicyclic compounds that inhibit vanilloid receptor subtype 1 (VR1) receptor” (priority 2002, published 2003).

Counter-ions that a name gives are not always drawn.

In general, melting point refers to the temperature of the solid-liquid transition. As for `O=C(NCc1ccc(Br)cc1)Nc1cccc2[nH]ncc12` (as salt: hydrochloride) [Example 89, N-(4-bromobenzyl)-N′-1H-indazol-4-ylurea], the melting point is 126 °C.
In turn, `O=C(NCc1ccc(Br)cc1)Nc1cccc2[nH]ccc12` [Example 78, N-(4-bromobenzyl)-N′-1H-indol-4-ylurea] showed a melting point of 198 °C.
Next, `O=C(NCc1ccc(Cl)c(Cl)c1)Nc1cccc2[nH]ccc12` [Example 79, N-(3,4-dichlorobenzyl)-N′-1H-indol-4-ylurea]: 201 °C; `O=C(NCc1ccc(C(F)(F)F)cc1)Nc1cccc2[nH]ccc12` [Example 80, N-1H-indol-4-yl-N′-[4-(trifluoromethyl)benzyl]urea]: 178 °C.
As for `O=C(NCc1ccc(OC(F)(F)F)cc1)Nc1cccc2[nH]ccc12` [Example 81, N-1H-indol-4-yl-N′-[4-(trifluoromethoxy)benzyl]urea], the figure is 177 °C; as for `O=C(NCc1ccc(C(F)(F)F)c(F)c1)Nc1cccc2[nH]ccc12` [Example 82, N-[3-fluoro-4-(trifluoromethyl)benzyl]-N′-1H-indol-4-ylurea], 198 °C.
Turning to `O=C(NCc1ccc(Cl)c(C(F)(F)F)c1)Nc1cccc2[nH]ccc12` [Example 83, 1-(4-Chloro-3-trifluoromethyl-benzyl)-3-(1H-indol-4-yl)-urea], the melting point came out at 197 °C.
`O=C(NCCc1ccc(Cl)cc1Cl)Nc1cccc2[nH]ccc12` [Example 85, N-[2-(2,4-dichlorophenyl)ethyl]-N′-1H-indol-4-ylurea] gave a melting point of 170 °C.
Next, `Cc1[nH]c2cccc(NC(=O)NCc3ccc(Br)cc3)c2c1C` [Example 88, N-(4-bromobenzyl)-N′-(2,3-dimethyl-1H-indol-4-yl)urea]: 190 °C.
